Reference: patent US7018796B2, “Preincubation assay methods” (Shionogi & Co., Ltd., priority 2000, dated 2006)

Molecular target: T1, HCV RNA-dependent RNA polymerase (Hepatitis C virus genotype 1a, UniProt P27958)
T1 construct: HCV RNA-dependent RNA polymerase is encoded in the NS5B (nonstructural protein 5B) region of HCV; made in house; host or cells: insect cells or E. coli
Test: Pre-incubation assay method with 3H-UTP (Example 1)
Assay type: biochemical
Conditions: pre-incubation 25° C. 60 min, method of Example 1; for inhibition at 100 µg/mL: 100 μg/ml, read-out: Inhibition rate at a concentration of 100 μg/ml
Method: A HCV RNA-dependent RNA polymerase, template RNA, primer RNA and Mg ion (Mg^2+) are pre-incubated at approximately 25° C. for approximately 1 hour. After that, substrate RNA and a test substance are added to start an enzyme reaction and measure an enzyme activity. IC50 value can be calculated by comparing with an enzyme activity measured in the absence of a test substance as well as the above prior method. An inhibitor can be selected by comparing IC50. An example of a procedure of this method is shown in the later described Example 1.
A cDNA encoding HCV RNA-dependent RNA polymerase was made by use of HCV positive human plasma and HCV RNA-dependent RNA polymerase was expressed using the insect cells or the E. coli. HCV RNA-dependent RNA polymerase in the cell extract was purified by use of an anion exchange chromatography, a heparin affinity chromatography, a polyU affinity chromatography, a cation exchange chromatography and gel filtration chromatography. The purification was performed at 4° C. and Tris buffer (pH 7.5) containing ethylenediaminetetraacetic acid (1 mM), dithiothreitol (10 mM) and glycerol (20%) was used. The enzyme purified was stored at 4° C. until use for the assays.
• 1) The buffer I ^1) (10.5 μl) containing Tris-HCl (100 mM, pH 7.5), MgCl2 (25 mM), dithiothreitol (5 mM), KCl (125 mM) and ethylenediaminetetraacetic acid (5 mM) was transferred to a polypropylene tube and then poly(A)^2) solution (100 μg/ml, 10.5 μl), oligo(U)12 ^3) solution (1 μg/ml, 10.5 μl) and water (8 μl) were added into the tube and mixed. • 2) Next, HCV RNA-dependent RNA polymerase (10.5 μl) was added into the tube and pre-incubated at 25° C. for […]. • 3) The enzyme solution pre-incubated (50 μl) was added to a test compound (5.26 μl/well) dissolved with dimethyl sulfoxide or water in a well of a 96-wells microtiter plate. • 4) Additionally, the buffer II (10.6 μl) containing Tris-HCl (100 mM, pH 7.5), MgCl2 (25 mM), dithiothreitol (5 mM), KCl (125 mM), ethylenediaminetetraacetic acid (5 mM) and UTP • 4) (2.1 μM, 1 μCi ^3H-UTP), was mixed with water (39.4 μl). The mixture (50 μl) was added into the well and mix, and then the enzyme reaction was performed at 25° C. for 30 min. • 5) After enzyme reaction for 30 min, the enzyme reaction was stopped by adding disodium ethylenediaminetetraacetic acid (50 mM, 50 μl). • 6) By use of the cell-harvester, all volume of the enzyme reaction sample was transferred onto a filtermat bound with diethylaminoethyl base (referred to as DEAE-filtermat) and washed twice for 10 sec with sodium phosphate buffer (0.25 M, pH 7.0) and once for 10 sec with de-ionized water. • 7) The DEAE-filtermat was dried at 95° C. for 15 min and transferred into a sample bag with liquid scintillater (10 ml), and then a sample bag was sealed. • 8) The radio activity was measured by a scintillation counter. • 9) The inhibitory rate was calculated from the radioactivity measured (ccpm) as follows. [formula]
The concentration of compound at 50% inhibition (IC50 value) was calculated from the compound concentration used and the inhibitory rate calculated.
When use of a compound at a μg/ml results in A % inhibition and use of a compound at β μg/ml results in B % inhibition on condition of A≧50>B the IC50 value is obtained by the calculation as follows. IC50 (μg/ml)=10^[(50−B)/(A−B)×(log^α^−log^β^)+log^β^]

T1 sequence (P27958 2421-3011): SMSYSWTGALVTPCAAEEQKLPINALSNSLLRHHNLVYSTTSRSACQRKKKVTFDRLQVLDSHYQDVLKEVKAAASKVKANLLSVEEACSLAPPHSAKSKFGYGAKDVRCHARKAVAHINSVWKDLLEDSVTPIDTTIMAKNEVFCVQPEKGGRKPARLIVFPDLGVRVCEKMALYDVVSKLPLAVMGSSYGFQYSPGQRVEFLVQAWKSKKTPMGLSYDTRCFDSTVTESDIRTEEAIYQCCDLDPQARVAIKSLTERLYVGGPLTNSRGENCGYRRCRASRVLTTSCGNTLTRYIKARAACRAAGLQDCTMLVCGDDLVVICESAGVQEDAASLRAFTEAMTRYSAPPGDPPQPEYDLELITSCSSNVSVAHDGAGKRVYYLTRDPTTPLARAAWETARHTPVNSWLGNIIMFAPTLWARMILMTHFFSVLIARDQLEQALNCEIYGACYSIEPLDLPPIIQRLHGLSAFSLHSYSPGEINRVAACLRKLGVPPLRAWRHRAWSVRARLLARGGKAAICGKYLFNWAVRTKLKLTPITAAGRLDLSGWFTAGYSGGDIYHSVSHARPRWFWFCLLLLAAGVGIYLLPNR

| Structure (SMILES) | inhibition at 100 µg/mL | IC50 |
| --- | --- | --- |
| O=C(O)C(O)=CC(=O)c1ccc(O)cc1 [Compound I-2] | 99% | 4.32 µM |
| COc1cccc(C(=O)C=C(O)C(=O)O)c1 [Compound I-12] | 94% | 37.8 µM |
| O=C(O)C(O)=CC(=O)c1cccc(Br)c1 [Compound I-14] | 93% | 32.8 µM |
| O=C(O)C(O)=CC(=O)c1cccs1 [Compound I-13] | 92% | 43.9 µM |
| O=C(O)C(O)=CC(=O)c1ccc2ccccc2c1 [Compound I-7] | 95% | 28.5 µM |
| O=C(O)C(O)=CC(=O)c1ccc(Cl)cc1 [Compound I-9] | 94% | 31.3 µM |
| Cn1cccc1C(=O)C=C(O)C(=O)O [Compound I-15] | 94% | 50.2 µM |
| O=C(O)C(O)=CC(=O)c1ccsc1 [Compound I-10] | 94% | 36.3 µM |
| O=C(O)C(O)=CC(=O)c1cc2ccccc2[nH]1 [Compound I-8] | 95% | 29.8 µM |
| O=C(O)C(O)=CC(=O)c1ccccc1 [Compound I-5] | 98% | 12 µM |
| Nc1ccc(C(=O)C=C(O)C(=O)O)cc1 [Compound I-4] | > 99% | 6.76 µM |
| Cc1ccc(C(=O)C=C(O)C(=O)O)s1 [Compound I-6] | 97% | 14.6 µM |
| COc1cc(C(=O)C=C(O)C(=O)O)ccc1O [Compound I-17] | 92% | 46.2 µM |
| O=C(O)C(O)=CC(=O)c1ccc(Cl)cc1Cl [Compound I-18] | 90% | 49.8 µM |
| O=C(O)C(O)=CC(=O)c1ccc(F)cc1 [Compound I-11] | 94% | 35.2 µM |
| Cc1ccc(C(=O)C=C(O)C(=O)O)cc1 [Compound I-3] | 99% | 4.85 µM |
| O=C(O)C(O)=CC(=O)c1ccc[nH]1 [Compound I-16] | 92% | 55.2 µM |
